Reference: PMC8753592, “Long-acting capsid inhibitor protects macaques from repeat SHIV challenges” (Nature, 2021)
Values joined by “and” are separate entries in the source; they are usually repeats but may differ in a detail not shown here. Equal values may be shown once.

What was measured:
SHIV-SF162P3 = test: Repeated escalating-dose rectal SHIV challenge study (plasma viraemia by gag RT-qPCR); type: in vivo, rhesus macaques of Indian origin; conditions: for Proportion of animals protected: 15 weekly rectal challenges, follow-up to week 24; for First viremic timepoint: individual infected animals
Procedure: For the challenge study, 24 outbred rhesus macaques of Indian origin were assigned to the three study groups with even sex and weight distributions. All animals were housed at Alpha Genesis (Yemassee, SC), and all procedures were conducted in compliance with all relevant local, state and federal regulations and were approved by the Alpha Genesis IACUC. […] The injection sites were monitored daily by veterinary staff for 3 days. Beginning in week 1, animals in all three groups were challenged by the intrarectal route with 1 ml of RPMI containing the specified dilution of a 3.62 × 10^3 TCID50 SHIV-SF162P3 stock. At each respective time point, the challenges were performed on the same day, using the same virus stock and inoculation method across the three groups. Whole blood was collected and processed into plasma and PBMCs as necessary to assess routine haematology, clinical chemistry, viral load and serology as well as for bioanalysis of drug levels. The animals were considered to be protected if they remained SHIV negative by plasma PCR assay and seronegative by enzyme immunoassay throughout the 15-week challenge phase and the 9-week follow-up.
RNA was extracted from rhesus macaque plasma using a QIAcube high-throughput instrument and an IndiSpin QIAcube HT Pathogen kit (Qiagen). RNA standards using the SIV gag sequence were generated by AmpliCap-Max T7 High-Yield Message Maker kit (Cell Script) and were purified using an RNA Clean and Concentrator kit (Zymo Research). Log dilutions of the RNA were included with each RT–qPCR assay. Reverse transcription of standards and samples was performed using a Superscript III VILO kit (Invitrogen). qPCR was performed using forward primer 5′-[…]-3′, reverse primer 5′-[…]-3′ and fluorescently labelled primer 5′-[…]-3′ on a Quantstudio 6 Flex system (Applied Biosystems). The assay LOD was 200 copies gag per ml.
Protection against acquired infection was analysed using Cox proportional hazard regression models based on the exact partial likelihood for discrete time expressed in weeks, which explicitly accounts for the time-varying viral challenge dose in the model. The hazard ratios with 95% confidence intervals for per-exposure relative reductions in acquisition risk were calculated for the GS-CA1-treated groups, and the results were compared with those for the vehicle-treated control group. Comparisons were considered statistically significant at a two-sided alpha level of 0.05 (P < 0.05). Statistical analyses were performed using GraphPad Prism version 8.1.2, SAS version 9.4 and R Studio software version 4.0.5.

CA monomer = conditions: ref Yant et al, Nat.Med, 2019;[4]; read-out: Binding Affinity (KD), CA monomer; cited from earlier work
CA pentamer = conditions: ref Yant et al, Nat.Med, 2019;[4]; read-out: Binding Affinity (KD), CA pentamer; cited from earlier work

## CC(C)(C#Cc1ccc(-c2ccc(Cl)c3c(NS(=O)(=O)C4CC4)nn(CC(F)F)c23)c([C@H](Cc2cc(F)cc(F)c2)NC(=O)Cn2nc(C(F)F)c3c2C(F)(F)[C@@H]2C[C@H]32)n1)S(C)(=O)=O [GS-CA1]
SHIV-SF162P3; 150 mg/kg single s.c.
  Median weeks to viraemia (95% CI): 16 weeks and 16 (11, –) weeks
  study week until which no viraemia was detected in the group: 11 week
  Proportion of animals protected: 2/8
SHIV-SF162P3; 150 mg/kg single s.c. vs vehicle
  per-exposure risk reduction: 87%
SHIV-SF162P3; 150 mg/kg
  First viremic timepoint: 16 study week and 13 study week and 11 study week and 14 study week and 17 study week
SHIV-SF162P3; 300 mg/kg single s.c.
  Median weeks to viraemia (95% CI): Not reached (17, –)
  study week until which no viraemia was detected in the group: 17 week
  Proportion of animals protected: 5/8
SHIV-SF162P3; 300 mg/kg single s.c. vs vehicle
  per-exposure risk reduction: 97%
SHIV-SF162P3; 300 mg/kg
  First viremic timepoint: 17 study week
SHIV-SF162P3; 2 weeks before first detectable viraemia, nine infected treated animals
  average plasma GS-CA1 at estimated mucosal infection: 31.4 nM
SHIV-SF162P3; 2 weeks before first detectable viraemia, range 0.4–1.6
  plasma GS-CA1 at estimated mucosal infection as multiple of rhesus paEC95: 1.0
SHIV-SF162P3; GS-CA1 150mg/kg group, Week 1, individual animals
  Plasma SHIV viral load: 200 gag RNA copies per ml
SHIV-SF162P3; GS-CA1 150mg/kg group, Week 2, individual animals
  Plasma SHIV viral load: 200 gag RNA copies per ml
SHIV-SF162P3; GS-CA1 150mg/kg group, Week 3, individual animals
  Plasma SHIV viral load: 200 gag RNA copies per ml
SHIV-SF162P3; GS-CA1 150mg/kg group, Week 4, individual animals
  Plasma SHIV viral load: 200 gag RNA copies per ml
SHIV-SF162P3; GS-CA1 150mg/kg group, Week 5, individual animals
  Plasma SHIV viral load: 200 gag RNA copies per ml
SHIV-SF162P3; GS-CA1 150mg/kg group, Week 6, individual animals
  Plasma SHIV viral load: 200 gag RNA copies per ml
SHIV-SF162P3; GS-CA1 150mg/kg group, Week 7, individual animals
  Plasma SHIV viral load: 200 gag RNA copies per ml
SHIV-SF162P3; GS-CA1 150mg/kg group, Week 8, individual animals
  Plasma SHIV viral load: 200 gag RNA copies per ml
SHIV-SF162P3; GS-CA1 150mg/kg group, Week 9, individual animals
  Plasma SHIV viral load: 200 gag RNA copies per ml
SHIV-SF162P3; GS-CA1 150mg/kg group, Week 10, individual animals
  Plasma SHIV viral load: 200 gag RNA copies per ml
SHIV-SF162P3; GS-CA1 150mg/kg group, Week 11, individual animals, 150 mg/kg
  Plasma SHIV viral load: 200 gag RNA copies per ml and 2317 gag RNA copies per ml
SHIV-SF162P3; GS-CA1 150mg/kg group, Week 12, individual animals, 150 mg/kg
  Plasma SHIV viral load: 200 gag RNA copies per ml and 1251253 gag RNA copies per ml
SHIV-SF162P3; GS-CA1 150mg/kg group, Week 13, individual animals, 150 mg/kg
  Plasma SHIV viral load: 200 gag RNA copies per ml and 4495324 gag RNA copies per ml and 15543 gag RNA copies per ml
SHIV-SF162P3; GS-CA1 150mg/kg group, Week 14, individual animals, 150 mg/kg
  Plasma SHIV viral load: 200 gag RNA copies per ml and 192698 gag RNA copies per ml and 302527 gag RNA copies per ml and 14481 gag RNA copies per ml
SHIV-SF162P3; GS-CA1 150mg/kg group, Week 15, individual animals, 150 mg/kg
  Plasma SHIV viral load: 200 gag RNA copies per ml and 1636073 gag RNA copies per ml and 41252 gag RNA copies per ml and 436449 gag RNA copies per ml
SHIV-SF162P3; GS-CA1 150mg/kg group, Week 16, individual animals, 150 mg/kg
  Plasma SHIV viral load: 43433 gag RNA copies per ml and 200 gag RNA copies per ml and 144532 gag RNA copies per ml and 37186 gag RNA copies per ml and 15508 gag RNA copies per ml and 62513 gag RNA copies per ml
SHIV-SF162P3; GS-CA1 150mg/kg group, Week 17, individual animals, 150 mg/kg
  Plasma SHIV viral load: 28104 gag RNA copies per ml and 200 gag RNA copies per ml and 128422 gag RNA copies per ml and 4020 gag RNA copies per ml and 5872 gag RNA copies per ml and 1974 gag RNA copies per ml and 76901 gag RNA copies per ml
SHIV-SF162P3; GS-CA1 150mg/kg group, Week 18, individual animals, 150 mg/kg
  Plasma SHIV viral load: 8535 gag RNA copies per ml and 200 gag RNA copies per ml and 144695 gag RNA copies per ml and 18625 gag RNA copies per ml and 13017 gag RNA copies per ml and 2250 gag RNA copies per ml and 14905 gag RNA copies per ml
SHIV-SF162P3; GS-CA1 150mg/kg group, Week 19, individual animals, 150 mg/kg
  Plasma SHIV viral load: 2197 gag RNA copies per ml and 200 gag RNA copies per ml and 23783 gag RNA copies per ml and 733 gag RNA copies per ml and 4607 gag RNA copies per ml and 1586 gag RNA copies per ml and 872 gag RNA copies per ml
SHIV-SF162P3; GS-CA1 150mg/kg group, Week 20, individual animals, 150 mg/kg
  Plasma SHIV viral load: 200 gag RNA copies per ml and 533 gag RNA copies per ml and 294 gag RNA copies per ml and 1229 gag RNA copies per ml
SHIV-SF162P3; GS-CA1 150mg/kg group, Week 21, individual animals, 150 mg/kg
  Plasma SHIV viral load: 200 gag RNA copies per ml and 8674 gag RNA copies per ml and 2199 gag RNA copies per ml
SHIV-SF162P3; GS-CA1 150mg/kg group, Week 22, individual animals, 150 mg/kg
  Plasma SHIV viral load: 200 gag RNA copies per ml and 2557 gag RNA copies per ml and 493 gag RNA copies per ml
SHIV-SF162P3; GS-CA1 150mg/kg group, Week 23, individual animals, 150 mg/kg
  Plasma SHIV viral load: 200 gag RNA copies per ml and 1150 gag RNA copies per ml and 1806 gag RNA copies per ml and 218 gag RNA copies per ml
SHIV-SF162P3; GS-CA1 150mg/kg group, Week 24, individual animals, 150 mg/kg
  Plasma SHIV viral load: 200 gag RNA copies per ml and 724 gag RNA copies per ml and 1367 gag RNA copies per ml
SHIV-SF162P3; GS-CA1 300mg/kg group, Week 1, individual animals
  Plasma SHIV viral load: 200 gag RNA copies per ml
SHIV-SF162P3; GS-CA1 300mg/kg group, Week 2, individual animals
  Plasma SHIV viral load: 200 gag RNA copies per ml
SHIV-SF162P3; GS-CA1 300mg/kg group, Week 3, individual animals
  Plasma SHIV viral load: 200 gag RNA copies per ml
SHIV-SF162P3; GS-CA1 300mg/kg group, Week 4, individual animals
  Plasma SHIV viral load: 200 gag RNA copies per ml
SHIV-SF162P3; GS-CA1 300mg/kg group, Week 5, individual animals
  Plasma SHIV viral load: 200 gag RNA copies per ml
SHIV-SF162P3; GS-CA1 300mg/kg group, Week 6, individual animals
  Plasma SHIV viral load: 200 gag RNA copies per ml
SHIV-SF162P3; GS-CA1 300mg/kg group, Week 7, individual animals
  Plasma SHIV viral load: 200 gag RNA copies per ml
SHIV-SF162P3; GS-CA1 300mg/kg group, Week 8, individual animals
  Plasma SHIV viral load: 200 gag RNA copies per ml
SHIV-SF162P3; GS-CA1 300mg/kg group, Week 9, individual animals
  Plasma SHIV viral load: 200 gag RNA copies per ml
SHIV-SF162P3; GS-CA1 300mg/kg group, Week 10, individual animals
  Plasma SHIV viral load: 200 gag RNA copies per ml
SHIV-SF162P3; GS-CA1 300mg/kg group, Week 11, individual animals
  Plasma SHIV viral load: 200 gag RNA copies per ml
SHIV-SF162P3; GS-CA1 300mg/kg group, Week 12, individual animals
  Plasma SHIV viral load: 200 gag RNA copies per ml
SHIV-SF162P3; GS-CA1 300mg/kg group, Week 13, individual animals
  Plasma SHIV viral load: 200 gag RNA copies per ml
SHIV-SF162P3; GS-CA1 300mg/kg group, Week 14, individual animals
  Plasma SHIV viral load: 200 gag RNA copies per ml
SHIV-SF162P3; GS-CA1 300mg/kg group, Week 15, individual animals
  Plasma SHIV viral load: 200 gag RNA copies per ml
SHIV-SF162P3; GS-CA1 300mg/kg group, Week 16, individual animals
  Plasma SHIV viral load: 200 gag RNA copies per ml
SHIV-SF162P3; GS-CA1 300mg/kg group, Week 17, individual animals, 300 mg/kg
  Plasma SHIV viral load: 9063 gag RNA copies per ml and 13193 gag RNA copies per ml and 200 gag RNA copies per ml and 13143 gag RNA copies per ml
SHIV-SF162P3; GS-CA1 300mg/kg group, Week 18, individual animals, 300 mg/kg
  Plasma SHIV viral load: 200 gag RNA copies per ml and 6116 gag RNA copies per ml and 1633235 gag RNA copies per ml
SHIV-SF162P3; GS-CA1 300mg/kg group, Week 19, individual animals, 300 mg/kg
  Plasma SHIV viral load: 200 gag RNA copies per ml and 123639 gag RNA copies per ml
SHIV-SF162P3; GS-CA1 300mg/kg group, Week 20, individual animals, 300 mg/kg
  Plasma SHIV viral load: 200 gag RNA copies per ml and 17958 gag RNA copies per ml
SHIV-SF162P3; GS-CA1 300mg/kg group, Week 21, individual animals, 300 mg/kg
  Plasma SHIV viral load: 200 gag RNA copies per ml
SHIV-SF162P3; GS-CA1 300mg/kg group, Week 22, individual animals, 300 mg/kg
  Plasma SHIV viral load: 200 gag RNA copies per ml
SHIV-SF162P3; GS-CA1 300mg/kg group, Week 23, individual animals, 300 mg/kg
  Plasma SHIV viral load: 200 gag RNA copies per ml
SHIV-SF162P3; GS-CA1 300mg/kg group, Week 24, individual animals, 300 mg/kg
  Plasma SHIV viral load: 200 gag RNA copies per ml
SHIV-SF162P3; infected GS-CA1-treated animals
  peak viral loads vs vehicle-treated control animals: significantly lower
CA monomer
  Kd: 3.9 nM
CA pentamer
  Kd: 0.27 nM
